This data set deals with rodent lifetime carcinogenesis bioassay, tumor incidence TD50. In words: chronic cancer bioassays in animals – CPDB, compiled studies (AID 1745844).

Structures are written as SMILES. Calls of active or inactive are those of the source. How the calls were made is not given here.

As usually defined, the TD50 is the dose at which the toxic effect under study appears in half of the subjects. In the case of `Cc1ncc[nH]1`, the TD50 is 729 mg/kg/day (mouse, strain B6C3F1, females, in feed, site: any site (literature study), lesion: several types, types named in the paper, dosed 104 weeks, study length 104 weeks); 1620 mg/kg/day (mouse, strain B6C3F1, females, in feed, site: liver, lesion: hepatocellular adenoma + hepatoblastoma + hepatocellular carcinoma, dosed 104 weeks, study length 104 weeks); 1380 mg/kg/day (mouse, strain B6C3F1, females, in feed, site: liver, lesion: hepatocellular adenoma, dosed 104 weeks, study length 104 weeks); 866 mg/kg/day (mouse, strain B6C3F1, males, in feed, site: any site (literature study), lesion: several types, types named in the paper, dosed 104 weeks, study length 104 weeks); 378 mg/kg/day (mouse, strain B6C3F1, males, in feed, site: liver + thyroid gland, lesion: hepatocellular adenoma + hepatocellular carcinoma + follicular-cell adenoma, dosed 104 weeks, study length 104 weeks); 546 mg/kg/day (mouse, strain B6C3F1, males, in feed, site: liver, lesion: hepatocellular adenoma + hepatoblastoma + hepatocellular carcinoma, dosed 104 weeks, study length 104 weeks). Further, the TD50 reads like this: (mouse, strain B6C3F1, males, in feed, site: liver, lesion: hepatocellular adenoma + hepatocellular carcinoma, dosed 104 weeks, study length 104 weeks) 546 mg/kg/day; (mouse, strain B6C3F1, males, in feed, site: liver, lesion: hepatocellular adenoma, dosed 104 weeks, study length 104 weeks) 648 mg/kg/day; (mouse, strain B6C3F1, males, in feed, site: liver, lesion: hepatocellular carcinoma, dosed 104 weeks, study length 104 weeks) 378 mg/kg/day; (mouse, strain B6C3F1, males, in feed, site: thyroid gland, lesion: follicular-cell adenoma, dosed 104 weeks, study length 104 weeks) 1810 mg/kg/day; (rat, strain Fischer 344, females, in feed, site: any site (literature study), lesion: several types, types named in the paper, dosed 105 weeks, study length 105 weeks) 131 mg/kg/day; (rat, strain Fischer 344, females, in feed, site: liver, lesion: hepatocellular adenoma + hepatoblastoma + hepatocellular carcinoma, dosed 105 weeks, study length 105 weeks) 2000 mg/kg/day. The TD50 reads like this: (rat, strain Fischer 344, females, in feed, site: liver, lesion: hepatocellular adenoma, dosed 105 weeks, study length 105 weeks) 2000 mg/kg/day; (rat, strain Fischer 344, females, in feed, site: thyroid gland, lesion: follicular-cell adenoma + follicular-cell carcinoma, dosed 105 weeks, study length 105 weeks) 882 mg/kg/day; (rat, strain Fischer 344, females, in feed, site: thyroid gland, lesion: follicular-cell adenoma, dosed 105 weeks, study length 105 weeks) 2100 mg/kg/day; (rat, strain Fischer 344, females, in feed, site: thyroid gland, lesion: follicular-cell carcinoma, dosed 105 weeks, study length 105 weeks) 1380 mg/kg/day; (rat, strain Fischer 344, males, in feed, site: any site (literature study), lesion: several types, types named in the paper, dosed 104 weeks, study length 104 weeks) 303 mg/kg/day; (rat, strain Fischer 344, males, in feed, site: liver, lesion: hepatocellular adenoma + hepatoblastoma + hepatocellular carcinoma, dosed 104 weeks, study length 104 weeks) 663 mg/kg/day. Further, the TD50 runs as follows: (rat, strain Fischer 344, males, in feed, site: liver, lesion: hepatocellular adenoma + hepatocellular carcinoma, dosed 104 weeks, study length 104 weeks) 663 mg/kg/day; (rat, strain Fischer 344, males, in feed, site: pancreatic islets, lesion: islet-cell adenoma, dosed 104 weeks, study length 104 weeks) 1010 mg/kg/day; (rat, strain Fischer 344, males, in feed, site: skin, lesion: basal-cell carcinoma + keratoacanthoma + trichoepithelioma, dosed 104 weeks, study length 104 weeks) 624 mg/kg/day; (rat, strain Fischer 344, males, in feed, site: thyroid gland, lesion: follicular-cell adenoma + follicular-cell carcinoma, dosed 104 weeks, study length 104 weeks) 854 mg/kg/day.
With `CC1CN(N=O)CC(C)N1N=O` (stereo not given), the TD50 is 0.932 mg/kg/day (hamster, strain Syrian Golden, males, by gavage, site: any site (literature study), lesion: several types, types named in the paper, dosed 35 weeks, study length 76 weeks); 3.1 mg/kg/day (hamster, strain Syrian Golden, males, by gavage, site: forestomach, lesion: papilloma, dosed 35 weeks, study length 76 weeks); 8.3 mg/kg/day (hamster, strain Syrian Golden, males, by gavage, site: liver, lesion: angiosarcoma, dosed 35 weeks, study length 76 weeks); 6.04 mg/kg/day (hamster, strain Syrian Golden, males, by gavage, site: lung, lesion: adenoma, dosed 35 weeks, study length 76 weeks).
Consider `CN(C)C(=O)Cl`, for which the TD50 (hamster, strain Syrian Golden, males, inhaled, site: nasal cavity, lesion: squamous-cell carcinoma, dosed 112 weeks, study length 112 weeks) is 0.625 mg/kg/day; the TD50 (mouse, strain Ha/ICR, females, i.p., site: abdomen, lesion: sarcoma, dosed 64 weeks, study length 64 weeks) was 5.37 mg/kg/day; the TD50 (mouse, strain Ha/ICR, females, i.p., site: abdomen, lesion: several types, types named in the paper, dosed 64 weeks, study length 64 weeks) was found to be 4.59 mg/kg/day; the TD50 (mouse, strain Ha/ICR, females, i.p., site: lung, lesion: papillary tumor, dosed 64 weeks, study length 64 weeks) turned out to be 6.65 mg/kg/day.
With `O=[N+]([O-])c1ccc(Nc2ccc(Nc3ccccc3)c(S(=O)(=O)O)c2)c([N+](=O)[O-])c1`, the TD50 was 7550 mg/kg/day (mouse, strain B6C3F1, females, by gavage, site: liver, lesion: hepatocellular adenoma + hepatocellular carcinoma + neoplastic nodule, dosed 103 weeks, study length 104 weeks); 11600 mg/kg/day (mouse, strain B6C3F1, females, by gavage, site: lung, lesion: alveolar/bronchiolar adenoma + alveolar/bronchiolar carcinoma, dosed 103 weeks, study length 104 weeks); 2590 mg/kg/day (inactive) (mouse, strain B6C3F1, females, by gavage, site: lung, lesion: alveolar/bronchiolar adenoma, dosed 103 weeks, study length 104 weeks); 372 mg/kg/day (mouse, strain B6C3F1, males, by gavage, site: any site (literature study), lesion: several types, types named in the paper, dosed 103 weeks, study length 104 weeks); 184 mg/kg/day (inactive) (mouse, strain B6C3F1, males, by gavage, site: liver, lesion: hepatocellular carcinoma, dosed 103 weeks, study length 104 weeks); 5860 mg/kg/day (mouse, strain B6C3F1, males, by gavage, site: lung, lesion: alveolar/bronchiolar adenoma + alveolar/bronchiolar carcinoma, dosed 103 weeks, study length 104 weeks). The TD50 (rat, strain Fischer 344, females, by gavage, site: any site (literature study), lesion: several types, types named in the paper, dosed 103 weeks, study length 104 weeks) came out at 361 mg/kg/day; the TD50 (rat, strain Fischer 344, females, by gavage, site: kidney, lesion: transitional-cell carcinoma, dosed 103 weeks, study length 104 weeks) is 1710 mg/kg/day; the TD50 (rat, strain Fischer 344, females, by gavage, site: liver, lesion: hepatocellular adenoma + hepatocellular carcinoma + neoplastic nodule, dosed 103 weeks, study length 104 weeks) came out at 5090 mg/kg/day; the TD50 (rat, strain Fischer 344, males, by gavage, site: any site (literature study), lesion: several types, types named in the paper, dosed 100 weeks, study length 104 weeks) was 270 mg/kg/day (inactive).
Consider `ClCc1ccccn1`, for which the TD50 runs as follows: (mouse, strain B6C3F1, females, by gavage, site: any site (literature study), lesion: several types, types named in the paper, dosed 99 weeks, study length 104 weeks) 9790 mg/kg/day (inactive); (mouse, strain B6C3F1, females, by gavage, site: lung, lesion: alveolar/bronchiolar adenoma + alveolar/bronchiolar carcinoma, dosed 99 weeks, study length 104 weeks) 2170 mg/kg/day; (mouse, strain B6C3F1, males, by gavage, site: lung, lesion: alveolar/bronchiolar adenoma + alveolar/bronchiolar carcinoma, dosed 99 weeks, study length 104 weeks) 2940 mg/kg/day; (rat, strain Fischer 344, females, by gavage, site: any site (literature study), lesion: several types, types named in the paper, dosed 99 weeks, study length 105 weeks) 114 mg/kg/day (inactive); (rat, strain Fischer 344, males, by gavage, site: any site (literature study), lesion: several types, types named in the paper, dosed 99 weeks, study length 105 weeks) 671 mg/kg/day; (rat, strain Fischer 344, males, by gavage, site: subcutaneous tissue, lesion: fibroma, dosed 99 weeks, study length 105 weeks) 515 mg/kg/day (inactive). For the setting “mouse, strain B6C3F1, males, by gavage, site: any site (literature study), lesion: several types, types named in the paper, dosed 99 weeks, study length 104 weeks”, the carcinogen call is “negative (inactive)”.
As for `C=C(C)C#N`, the carcinogen call is “negative (inactive)” (mouse, strain B6C3F1, females, by gavage, site: any site (literature study), lesion: several types, types named in the paper, dosed 104 weeks, study length 104 weeks) and “negative (inactive)” (mouse, strain B6C3F1, males, by gavage, site: any site (literature study), lesion: several types, types named in the paper, dosed 104 weeks, study length 104 weeks). For the same compound, the TD50 reads like this: (mouse, strain B6C3F1, females, by gavage, site: lung, lesion: alveolar/bronchiolar adenoma + alveolar/bronchiolar carcinoma, dosed 104 weeks, study length 104 weeks) 178 mg/kg/day; (mouse, strain B6C3F1, males, by gavage, site: lung, lesion: alveolar/bronchiolar adenoma + alveolar/bronchiolar carcinoma, dosed 104 weeks, study length 104 weeks) 160 mg/kg/day; (rat, strain Fischer 344, females, by gavage, site: any site (literature study), lesion: several types, types named in the paper, dosed 104 weeks, study length 104 weeks) 323 mg/kg/day (inactive); (rat, strain Fischer 344, males, by gavage, site: subcutaneous tissue, lesion: fibrosarcoma + fibrous histiocytoma + sarcoma, dosed 104 weeks, study length 104 weeks) 205 mg/kg/day (inactive).
As to `NC(=O)CCCCn1ccc(NC(N)=NCC(F)(F)F)n1`, the TD50 reads like this: (mouse, strain B6C3F1, females, in feed, site: gastric mucosa, lesion: carcinoid tumor, malignant, dosed 91 weeks, study length 91 weeks) 956 mg/kg/day; (mouse, strain B6C3F1, males, in feed, site: gastric mucosa, lesion: carcinoid tumor, malignant, dosed 91 weeks, study length 91 weeks) 401 mg/kg/day; (rat, strain Sprague-Dawley, females, in feed, site: gastric mucosa, lesion: carcinoid tumor, malignant, dosed 104 weeks, study length 104 weeks) 1350 mg/kg/day; (rat, strain Sprague-Dawley, males, in feed, site: gastric mucosa, lesion: carcinoid tumor, malignant, dosed 104 weeks, study length 104 weeks) 1030 mg/kg/day.
In the case of `COc1ccc(O)cc1`, the TD50 (rat, strain F344/DuCrj, females, in feed, site: forestomach, lesion: squamous-cell carcinoma, dosed 104 weeks, study length 104 weeks) was 3070 mg/kg/day; the TD50 (rat, strain F344/DuCrj, females, in feed, site: forestomach, lesion: squamous-cell papilloma, dosed 104 weeks, study length 104 weeks) was 2580 mg/kg/day; the TD50 (rat, strain F344/DuCrj, males, in feed, site: forestomach, lesion: papilloma, dosed 51 weeks, study length 52 weeks) is 1460 mg/kg/day; the TD50 (rat, strain F344/DuCrj, males, in feed, site: forestomach, lesion: squamous-cell carcinoma, dosed 104 weeks, study length 104 weeks) was 377 mg/kg/day; the TD50 (rat, strain F344/DuCrj, males, in feed, site: forestomach, lesion: squamous-cell papilloma, dosed 104 weeks, study length 104 weeks) is 832 mg/kg/day; the TD50 (rat, strain F344/DuCrj, males, in feed, site: stomach, glandular, lesion: adenoma, dosed 104 weeks, study length 104 weeks) is 16200 mg/kg/day. Further, the carcinogen call was “negative (inactive)” (rat, strain F344/DuCrj, males, in feed, site: forestomach, lesion: one or several types, types not named, dosed 51 weeks, study length 52 weeks) and “negative (inactive)” (rat, strain F344/DuCrj, males, in feed, site: stomach, glandular, lesion: one or several types, types not named, dosed 51 weeks, study length 52 weeks).
As for `O=NN1CCCCCCCCCCCC1`, the TD50 (rat, strain NZR/Gd, females, by gavage, site: liver, lesion: hepatocellular tumor, dosed 52 weeks, study length 171 weeks) was 10.9 mg/kg/day; the TD50 (rat, strain NZR/Gd, females, by gavage, site: lung, lesion: several types, types named in the paper, dosed 52 weeks, study length 171 weeks) was determined as 7.96 mg/kg/day; the TD50 (rat, strain NZR/Gd, males, by gavage, site: heart, lesion: one or several types, types not named, dosed 52 weeks, study length 150 weeks) was 2.15 mg/kg/day; the TD50 (rat, strain NZR/Gd, males, by gavage, site: liver, lesion: hepatocellular tumor, dosed 52 weeks, study length 150 weeks) is 16.8 mg/kg/day; the TD50 (rat, strain NZR/Gd, males, by gavage, site: lung, lesion: several types, types named in the paper, dosed 52 weeks, study length 150 weeks) amounted to 14.6 mg/kg/day.

For the origin of these results see PubChem BioAssay AID1745844 (Carcinogenic Potency Database (CPDB), 2022).
